Laboratory results published in ChEMBL document CHEMBL6071173, “Machine Learning Accelerates Screening of Osteoclast Differentiation Inhibitors from Natural Products” (2024).
Activity calls are given as the source filed them. The rule behind the calls is not given here.

Experiments:
[1] = system: RAW 264; test: Inhibition of RANKL-induced osteoclastogenesis in mouse RAW 264 cells at 1 nM […] by TRAP staining based assay; type: functional, cell-based
[2] = system: RAW 264; test: Cytotoxicity against mouse RAW 264 cells assessed as reduction in cell viability at upto 160 uM by MTT assay; type: functional, cell-based
[3] = Inhibition of RANKL-induced osteoclastogenesis in mouse RAW 264 cells at 20 uM […] by TRAP staining based assay relative to control; type: functional; conditions: RAW264.7

Row | SMILES | inhibition [1] | Activity [2] | inhibition at 20 µM [3]
1 | CC1=C(/C=C/C(C)=C/C=C/C(C)=C/C(=O)O)C(C)(C)CCC1 | Active | – | –
2 | C/C=C/C=C/C(=O)O[C@H]1CC/C=C/[C@H](O)[C@H](O)[C@@H](CCC)OC1=O [PINOLIDOXIN] | – | inactive | 57%
